Laboratory results: ChEMBL document CHEMBL1133775, “Potent and selective indolomorphinan antagonists of the kappa-opioid receptor” (J Med Chem, 2000)

Assays:
[1] = molecular target: Kappa-type opioid receptor (Cavia porcellus) (UniProt P41144); assay: Opioid receptor kappa 1 Antagonism (100 nM) is expressed as (Ke = [antagonist] / (IC50 ratio -1); format: functional
[2] = molecular target: Mu-type opioid receptor (Cavia porcellus) (UniProt P97266); assay: Opioid receptor mu 1 Antagonism (100 nM) is expressed as (Ke = [antagonist] / (IC50 ratio -1); format: functional
Sequence of Mu-type opioid receptor (Cavia porcellus) (P97266 whole entry): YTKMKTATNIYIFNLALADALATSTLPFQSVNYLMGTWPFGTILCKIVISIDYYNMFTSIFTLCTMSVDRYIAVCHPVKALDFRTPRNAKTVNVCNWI

[3] = molecular target: Kappa-type opioid receptor (Cavia porcellus) (UniProt P41144); assay: Ratio of the IC50 of Kappa receptor agonist, ethylketazocine in the presence of compound in GPI divided by the control IC50.; format: functional
[4] = molecular target: Delta-type opioid receptor (Mus musculus) (UniProt P32300); assay: Ratio of the IC50 of delta receptor agonist, [D-Ala-2, D-Leu5]-enkephalin in the presence of compound in MVD divided by the control IC50.; format: functional
Sequence of Delta-type opioid receptor (Mus musculus) (P32300 whole entry): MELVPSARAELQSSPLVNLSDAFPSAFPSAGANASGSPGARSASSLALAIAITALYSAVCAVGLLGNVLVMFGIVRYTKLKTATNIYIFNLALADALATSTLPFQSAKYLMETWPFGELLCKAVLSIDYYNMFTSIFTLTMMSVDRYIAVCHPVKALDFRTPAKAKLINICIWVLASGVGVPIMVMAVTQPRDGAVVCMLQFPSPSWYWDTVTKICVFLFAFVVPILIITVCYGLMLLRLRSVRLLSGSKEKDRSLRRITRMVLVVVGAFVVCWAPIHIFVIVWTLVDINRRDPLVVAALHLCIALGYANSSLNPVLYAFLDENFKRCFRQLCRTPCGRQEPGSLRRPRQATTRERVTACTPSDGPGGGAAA

[5] = Selectivity ratio, ratio of Ke value of mu to kappa opioid receptor
[6] = Selectivity ratio, ratio of Ke value of Kappa to Delta opioid receptor
[7] = molecular target: Mu-type opioid receptor (Cavia porcellus) (UniProt P97266); assay: Ratio of the IC50 of mu receptor agonist, Morphine in the presence of compound in GPI divided by the control IC50.; format: functional
[8] = molecular target: T1, Opioid receptors; mu & kappa (Homo sapiens) (UniProt P41145+P35372); assay: Selectivity ratio, ratio of Ke value of Kappa to mu opioid receptor; format: protein assay
T1 sequence (P35372 whole entry, looked up): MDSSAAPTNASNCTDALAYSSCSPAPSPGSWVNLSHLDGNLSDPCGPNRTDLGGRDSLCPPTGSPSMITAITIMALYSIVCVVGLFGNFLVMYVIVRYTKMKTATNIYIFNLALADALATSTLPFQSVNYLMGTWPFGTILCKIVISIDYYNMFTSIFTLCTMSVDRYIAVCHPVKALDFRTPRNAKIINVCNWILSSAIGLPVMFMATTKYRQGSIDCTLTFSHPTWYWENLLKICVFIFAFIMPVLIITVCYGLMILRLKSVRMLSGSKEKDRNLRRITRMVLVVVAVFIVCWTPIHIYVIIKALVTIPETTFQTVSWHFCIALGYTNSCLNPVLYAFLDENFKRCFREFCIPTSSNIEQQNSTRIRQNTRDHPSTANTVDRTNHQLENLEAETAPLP
T1 sequence (P41145 whole entry, looked up): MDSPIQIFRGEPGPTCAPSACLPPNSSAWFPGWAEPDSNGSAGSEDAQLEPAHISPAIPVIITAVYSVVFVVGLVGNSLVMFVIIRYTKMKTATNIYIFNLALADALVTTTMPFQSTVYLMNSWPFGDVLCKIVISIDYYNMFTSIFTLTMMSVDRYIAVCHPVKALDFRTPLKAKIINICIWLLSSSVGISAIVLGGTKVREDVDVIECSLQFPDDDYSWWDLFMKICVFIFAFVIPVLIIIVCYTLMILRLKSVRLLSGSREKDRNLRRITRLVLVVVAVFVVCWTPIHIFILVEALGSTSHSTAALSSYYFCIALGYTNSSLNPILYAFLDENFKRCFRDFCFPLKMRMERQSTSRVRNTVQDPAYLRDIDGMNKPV

[9] = molecular target: Kappa-type opioid receptor (Rattus norvegicus, UniProt P34975); assay: Binding affinity on HEK293 cells transiently transfected with plasmids encoding the rat Opioid receptor kappa 1; format: cell-based
Sequence of Kappa-type opioid receptor (P34975 whole entry): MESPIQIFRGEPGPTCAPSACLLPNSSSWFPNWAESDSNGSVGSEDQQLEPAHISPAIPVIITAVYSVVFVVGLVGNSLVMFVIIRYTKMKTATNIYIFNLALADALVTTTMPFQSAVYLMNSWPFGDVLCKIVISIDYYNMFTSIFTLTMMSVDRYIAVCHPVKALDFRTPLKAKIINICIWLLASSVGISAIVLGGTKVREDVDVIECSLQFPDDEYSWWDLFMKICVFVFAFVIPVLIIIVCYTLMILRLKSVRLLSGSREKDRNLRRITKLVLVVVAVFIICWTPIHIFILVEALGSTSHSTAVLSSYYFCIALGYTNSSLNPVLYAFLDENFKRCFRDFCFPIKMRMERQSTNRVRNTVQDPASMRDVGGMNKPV

[10] = molecular target: Mu-type opioid receptor (Rattus norvegicus, UniProt P33535); assay: Binding affinity on HEK293 cells transiently transfected with plasmids encoding the rat Opioid receptor mu 1; format: cell-based
Sequence of Mu-type opioid receptor (P33535 whole entry): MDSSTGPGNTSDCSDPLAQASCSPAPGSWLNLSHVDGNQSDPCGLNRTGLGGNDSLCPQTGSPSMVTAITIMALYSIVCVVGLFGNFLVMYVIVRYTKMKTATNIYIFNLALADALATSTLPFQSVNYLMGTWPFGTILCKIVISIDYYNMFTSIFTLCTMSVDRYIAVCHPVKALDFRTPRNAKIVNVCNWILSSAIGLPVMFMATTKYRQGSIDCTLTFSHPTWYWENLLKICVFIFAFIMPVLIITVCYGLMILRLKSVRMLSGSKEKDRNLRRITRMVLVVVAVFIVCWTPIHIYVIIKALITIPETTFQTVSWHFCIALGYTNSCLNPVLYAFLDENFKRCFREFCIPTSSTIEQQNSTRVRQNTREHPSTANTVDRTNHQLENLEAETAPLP

[11] = molecular target: Delta-type opioid receptor (Rattus norvegicus, UniProt P33533); assay: Binding affinity on HEK293 cells transiently transfected with plasmids encoding the rat Opioid receptor delta 1; format: cell-based
Sequence of Delta-type opioid receptor (P33533 whole entry): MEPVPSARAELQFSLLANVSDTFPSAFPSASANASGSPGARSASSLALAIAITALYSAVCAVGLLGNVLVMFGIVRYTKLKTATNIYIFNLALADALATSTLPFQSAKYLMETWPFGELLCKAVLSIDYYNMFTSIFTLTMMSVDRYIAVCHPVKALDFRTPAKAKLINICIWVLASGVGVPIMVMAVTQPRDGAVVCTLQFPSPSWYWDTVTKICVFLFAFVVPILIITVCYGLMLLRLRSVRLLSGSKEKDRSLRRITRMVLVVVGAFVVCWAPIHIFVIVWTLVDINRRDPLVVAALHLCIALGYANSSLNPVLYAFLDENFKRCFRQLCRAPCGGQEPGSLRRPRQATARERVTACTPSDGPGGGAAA

[12] = molecular target: T2, Opioid receptors; delta & kappa (Homo sapiens) (UniProt P41145+P41143); assay: Selectivity ratio, ratio of binding affinity of delta to kappa opioid receptor; format: protein assay
T2 sequence (P41143 whole entry, looked up): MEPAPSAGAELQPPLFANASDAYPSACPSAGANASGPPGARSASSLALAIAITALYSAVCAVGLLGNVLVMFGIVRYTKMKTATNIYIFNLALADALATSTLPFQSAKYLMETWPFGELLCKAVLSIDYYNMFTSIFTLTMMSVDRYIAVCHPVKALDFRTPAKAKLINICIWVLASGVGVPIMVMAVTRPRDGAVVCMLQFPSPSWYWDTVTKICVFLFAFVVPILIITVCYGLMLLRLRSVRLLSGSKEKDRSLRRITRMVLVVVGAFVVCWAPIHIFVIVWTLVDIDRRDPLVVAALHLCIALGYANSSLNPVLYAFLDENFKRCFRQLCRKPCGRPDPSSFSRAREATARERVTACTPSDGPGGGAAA
T2 sequence (P41145 whole entry, looked up): as the sequence (P41145 whole entry, looked up) above

[13] = molecular target: T1, Opioid receptors; mu & kappa (Homo sapiens); assay: Selectivity ratio, ratio of binding affinity of mu to kappa opioid receptor; format: protein assay
[14] = molecular target: T2, Opioid receptors; delta & kappa (Homo sapiens); assay: Selectivity ratio, ratio of Ke value of delta to kappa opioid receptor; format: protein assay
[15] = molecular target: Delta-type opioid receptor (Mus musculus) (UniProt P32300); assay: Opioid receptor delta 1 Antagonism (100 nM) is expressed as (Ke = [antagonist] / (IC50 ratio -1); format: functional
[16] = molecular target: T2, Opioid receptors; delta & kappa (Homo sapiens); assay: Selectivity ratio, ratio of Ke value of kappa to delta opioid receptor (extrapolated value); format: protein assay
[17] = molecular target: T2, Opioid receptors; delta & kappa (Homo sapiens); assay: Selectivity ratio, ratio of Ke value of Kappa to Delta opioid receptor (extrapolated value); format: protein assay

Sequence of Kappa-type opioid receptor (Cavia porcellus) (P41144 whole entry): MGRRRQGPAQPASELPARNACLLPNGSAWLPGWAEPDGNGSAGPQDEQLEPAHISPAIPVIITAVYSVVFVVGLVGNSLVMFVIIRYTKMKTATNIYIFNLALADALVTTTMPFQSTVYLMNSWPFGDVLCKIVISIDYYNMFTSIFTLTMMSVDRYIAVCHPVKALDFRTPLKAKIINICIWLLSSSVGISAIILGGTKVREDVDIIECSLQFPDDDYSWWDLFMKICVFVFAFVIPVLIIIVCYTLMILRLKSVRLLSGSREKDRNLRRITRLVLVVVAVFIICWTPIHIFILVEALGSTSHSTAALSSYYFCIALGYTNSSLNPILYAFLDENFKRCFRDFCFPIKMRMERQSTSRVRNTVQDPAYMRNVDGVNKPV

Compound | Ke [1] [nM] | Ke [2] [nM] | IC50 ratio [3] | IC50 ratio [4] | Ratio [5] | Ratio [6] | IC50 ratio [7] | Ratio [8] | Ki [9] [nM] | Ki [10] [nM] | Ki [11] [nM] | Ratio [12] | Ratio [13] | Ratio [14] | Ke [15] [nM] | Ratio [16] | Ratio [17]
CC(=N)NCc1ccc2[nH]c3c(c2c1)C[C@@]1(O)C2Cc4ccc(O)c5c4[C@@]1(CCN2CC1CC1)[C@H]3O5 | 6.1 | 8.8 | 17.3 | 0.88 | 1.4 | 17.3 | 12.4 |  |  |  |  |  |  |  |  |  | 
C[N+](C)(C)c1ccc2[nH]c3c(c2c1)C[C@@]1(O)C2Cc4ccc(O)c5c4[C@@]1(CCN2CC1CC1)[C@H]3O5 | 3.1 |  | 33.3 | 3.6 |  | 9.1 | 2.7 | 13 |  |  |  |  |  |  |  |  | 
N=C(N)Cc1ccc2[nH]c3c(c2c1)C[C@@]1(O)C2Cc4ccc(O)c5c4[C@@]1(CCN2CC1CC1)[C@H]3O5 | 2.2 |  | 46.7 | 1.8 |  | 26 | 2.1 |  | 0.214 | 40.8 | 33 |  |  |  |  |  | 
N=C(N)/N=C(\N)Nc1ccc2[nH]c3c(c2c1)C[C@@]1(O)C2Cc4ccc(O)c5c4[C@@]1(CCN2CC1CC1)[C@H]3O5 | 0.2 | 14 | 512 | 0.41 | 74 | 512 | 7.9 |  |  |  |  | 478 | 95 |  |  |  | 
N/C(S)=N/c1ccc2[nH]c3c(c2c1)C[C@@]1(O)C2Cc4ccc(O)c5c4[C@@]1(CCN2CC1CC1)[C@H]3O5 | 7.2 | 38 | 14.9 | 1.3 | 5.3 | 12 | 3.6 |  |  |  |  |  |  |  |  |  | 
CN(C)CCc1ccc2[nH]c3c(c2c1)C[C@@]1(O)C2Cc4ccc(O)c5c4[C@@]1(CCN2CC1CC1)[C@H]3O5 | 3.2 |  | 32 | 1.8 |  | 18 | 2.4 | 13 |  |  |  |  |  |  |  |  | 
N#CN/C(N)=N/c1ccc2[nH]c3c(c2c1)C[C@@]1(O)C2Cc4ccc(O)c5c4[C@@]1(CCN2CC1CC1)[C@H]3O5 |  |  | 33 | 12 | 5.1 |  | 7.2 |  |  |  |  | 2 | 20 | 2.9 |  |  | 
N=C(N)NCc1ccc2[nH]c3c(c2c1)C[C@@]1(O)[C@H]2Cc4ccc(O)c5c4[C@@]1(CCN2CC1CC1)[C@H]3O5 | 0.6 | 11 | 172 | 0.88 | 19 | 172 | 10.3 |  | 0.745 | 66 | 30.8 | 41 | 89 |  |  |  | 
N=C(N)NCCc1ccc2[nH]c3c(c2c1)C[C@@]1(O)[C@H]2Cc4ccc(O)c5c4[C@@]1(CCN2CC1CC1)[C@H]3O5 | 1.7 | 12 | 59.8 | 30.1 | 7.3 |  | 9.1 |  | 0.507 | 33.4 | 10.7 | 21 | 66 | 2 | 3.4 |  | 
NCCc1ccc2[nH]c3c(c2c1)C[C@@]1(O)C2Cc4ccc(O)c5c4[C@@]1(CCN2CC1CC1)[C@H]3O5 | 2.1 |  | 48.1 | 2.3 |  | 21 | 3.2 | 15 |  |  |  |  |  |  |  |  | 
CC(=N)Nc1ccc2[nH]c3c(c2c1)C[C@@]1(O)C2Cc4ccc(O)c5c4[C@@]1(CCN2CC1CC1)[C@H]3O5 | 1 | 16 | 99.4 | 1.9 | 15 | 52 | 7.5 |  |  |  |  |  |  |  |  |  | 
NCc1ccc2[nH]c3c(c2c1)C[C@@]1(O)C2Cc4ccc(O)c5c4[C@@]1(CCN2CC1CC1)[C@H]3O5 | 34 | 61 | 3.9 | 6.4 | 1.8 |  | 2.6 |  |  |  |  |  |  | 0.5 | 18 |  | 
N#CN/C(N)=N/Cc1ccc2[nH]c3c(c2c1)C[C@@]1(O)C2Cc4ccc(O)c5c4[C@@]1(CCN2CC1CC1)[C@H]3O5 | 2.9 | 18 | 35.4 | 17.9 | 6.2 |  | 6.7 |  |  |  |  |  |  | 2 | 5.9 |  | 
C[N+](C)(C)CCc1ccc2[nH]c3c(c2c1)C[C@@]1(O)C2Cc4ccc(O)c5c4[C@@]1(CCN2CC1CC1)[C@H]3O5 | 0.4 | 5.7 | 48 | 2.5 | 13 |  | 18.5 |  |  |  |  |  |  |  |  | 96 | 
N=C(N)N=C(N)Nc1ccc2[nH]c3c(c2c1)C[C@@]1(O)C2Cc4ccc(O)c5c4[C@@]1(CCN2CC1CC1)[C@H]3O5 |  |  |  |  |  |  |  |  | 0.226 | 21.5 | 108 |  |  |  |  |  | 
CN1CC[C@]23c4c5ccc(O)c4O[C@H]2c2[nH]c4ccc(NC(=N)N)cc4c2C[C@@]3(O)C1C5 | 17 |  | 6.8 | 1.7 |  | 4.1 | 1.1 | 6.3 |  |  |  | > 3530 | 310 |  |  |  | 
Nc1ccc2[nH]c3c(c2c1)C[C@@]1(O)C2Cc4ccc(O)c5c4[C@@]1(CCN2CC1CC1)[C@H]3O5 |  | 57 | 4 | 10.3 |  | 0.4 | 2.8 | 1.5 |  |  |  |  |  |  |  |  | 
CC(=N)NCCc1ccc2[nH]c3c(c2c1)C[C@@]1(O)C2Cc4ccc(O)c5c4[C@@]1(CCN2CC1CC1)[C@H]3O5 | 0.3 | 7.6 | 72.1 | 6.4 | 27 |  | 14.1 |  |  |  |  |  |  | 65 |  |  | 
CN(C)c1ccc2[nH]c3c(c2c1)C[C@@]1(O)C2Cc4ccc(O)c5c4[C@@]1(CCN2CC1CC1)[C@H]3O5 | 6.8 | 36 | 15.8 | 2.4 | 5.3 | 6.6 | 3.8 |  |  |  |  |  |  |  |  |  | 
CSC(=N)Nc1ccc2[nH]c3c(c2c1)C[C@@]1(O)C2Cc4ccc(O)c5c4[C@@]1(CCN2CC1CC1)[C@H]3O5 | 0.5 | 16 | 43.6 | 1.9 | 33 |  | 7.4 |  |  |  |  |  |  |  |  |  | 115
Oc1ccc2c3c1O[C@H]1c4[nH]c5c(c4C[C@@]4(O)[C@@H](C2)N(CC2CC2)CC[C@]314)C[C@@]1(O)[C@H]2Cc3ccc(O)c4c3[C@@]1(CCN2CC1CC1)[C@H]5O4 [NORBINALTORPHIMINE] |  |  |  |  |  |  |  |  | 0.244 |  | 41.5 |  |  |  |  |  | 
N#CN=C(N)Nc1ccc2[nH]c3c(c2c1)C[C@@]1(O)C2Cc4ccc(O)c5c4[C@@]1(CCN2CC1CC1)[C@H]3O5 |  |  |  |  |  |  |  |  | 4.46 | 89.8 | 9.46 |  |  |  |  |  | 
N=C(N)Nc1ccc2[nH]c3c(c2c1)C[C@@]1(O)[C@H]2Cc4ccc(O)c5c4[C@@]1(CCN2CC1CC1)[C@H]3O5 [GUANIDINONALTRINDOLE] |  |  |  |  | 193 |  |  |  | 0.18 | 22.5 | 46.2 | 257 | 125 |  |  |  | 366
CN1CC[C@]23c4c5ccc(O)c4O[C@H]2c2[nH]c4ccc(N=C(N)N)cc4c2C[C@@]3(O)C1C5 |  |  |  |  |  |  |  |  | 2.83 | 876 | > 10000 |  |  |  |  |  | 
CN(C)Cc1ccc2[nH]c3c(c2c1)C[C@@]1(O)C2Cc4ccc(O)c5c4[C@@]1(CCN2CC1CC1)[C@H]3O5 | 0.8 | 9.8 | 125 | 1.4 | 12 | 87 | 11.2 |  | 0.823 | 36 | 15.7 | 19 | 44 |  |  |  | 
N=C(N)c1ccc2[nH]c3c(c2c1)C[C@@]1(O)C2Cc4ccc(O)c5c4[C@@]1(CCN2CC1CC1)[C@H]3O5 | 0.7 | 16 | 142 | 0.3 | 22 | 142 | 7.2 |  | 0.529 | 65.7 | 112 |  |  |  |  |  | 
C[N+](C)(C)Cc1ccc2[nH]c3c(c2c1)C[C@@]1(O)C2Cc4ccc(O)c5c4[C@@]1(CCN2CC1CC1)[C@H]3O5 | 0.7 | 4 | 154 | 0.79 | 6.2 | 154 | 25.8 |  | 0.354 | 12.8 | 78.4 | 221 | 36 |  |  |  | 
